Reference: ChEMBL document CHEMBL4680246, “Design, synthesis and biological evaluation of novel O-carbamoyl ferulamide derivatives as multi-target-directed ligands for the treatment of Alzheimer's disease” (Eur J Med Chem, 2020)

Tests used:
[1] = Drug uptake in iv dosed mouse thalamus measured after 60 mins in presence of (E)-4-(3-(3,4-dihydroisoquinolin-2(1H)-yl)-3-oxoprop-1-en-1-yl)-2-methoxyphenyl ethyl(methyl)carbamate by PET imaging analysis; format: ADME, organism-based; details: in vivo
[2] = Drug uptake in iv dosed mouse thalamus measured after 60 mins by PET imaging analysis; format: ADME, organism-based; details: in vivo, 1 h
[3] = Drug uptake in iv dosed mouse brain measured after 60 mins by PET imaging analysis; format: ADME, organism-based; details: in vivo, 1 h
[4] = Drug uptake in iv dosed mouse central gray substance of midbrain measured after 60 mins by PET imaging analysis; format: ADME, organism-based; details: in vivo, 1 h
[5] = Drug uptake in iv dosed mouse brainstem measured after 60 mins by PET imaging analysis; format: ADME, organism-based; details: in vivo, 1 h
[6] = Drug uptake in iv dosed mouse brain measured up to 60 mins in presence of rivastigmine by PET imaging analysis; format: ADME, organism-based; details: in vivo, 1 h
[7] = Drug uptake in iv dosed mouse striatum measured after 60 mins in presence of rivastigmine by PET imaging analysis; format: ADME, organism-based; details: in vivo, 1 h
[8] = Drug uptake in iv dosed mouse thalamus measured after 60 mins in presence of rivastigmine by PET imaging analysis; format: ADME, organism-based; details: in vivo, 1 h
[9] = Drug uptake in iv dosed mouse central gray substance of midbrain measured after 60 mins in presence of rivastigmine by PET imaging analysis; format: ADME, organism-based; details: in vivo, 1 h
[10] = Drug uptake in iv dosed mouse cortex measured after 60 mins in presence of rivastigmine by PET imaging analysis; format: ADME, organism-based; details: in vivo, 1 h
[11] = Drug uptake in iv dosed mouse cerebellum measured after 60 mins by PET imaging analysis; format: ADME, organism-based; details: in vivo, 1 h
[12] = Drug uptake in iv dosed mouse brain measured up to 60 mins in presence of (E)-4-(3-(3,4-dihydroisoquinolin-2(1H)-yl)-3-oxoprop-1-en-1-yl)-2-methoxyphenyl ethyl(methyl)carbamate by PET imaging analysis; format: ADME, organism-based; details: in vivo
[13] = Drug uptake in iv dosed mouse cerebellum measured after 60 mins in presence of rivastigmine by PET imaging analysis; format: ADME, organism-based; details: in vivo, 1 h
[14] = Drug uptake in iv dosed mouse lung measured after 5 mins by PET imaging analysis; format: ADME, organism-based; details: in vivo
[15] = Drug uptake in iv dosed mouse hippocampus measured after 60 mins in presence of rivastigmine by PET imaging analysis; format: ADME, organism-based; details: in vivo, 1 h
[16] = Drug uptake in iv dosed mouse cortex measured after 60 mins in presence of (E)-4-(3-(3,4-dihydroisoquinolin-2(1H)-yl)-3-oxoprop-1-en-1-yl)-2-methoxyphenyl ethyl(methyl)carbamate by PET imaging analysis; format: ADME, organism-based; details: in vivo
[17] = Drug uptake in iv dosed mouse brain measured after 5 mins by PET imaging analysis; format: ADME, organism-based; details: in vivo
[18] = Drug uptake in iv dosed mouse central gray substance of midbrain measured after 60 mins in presence of (E)-4-(3-(3,4-dihydroisoquinolin-2(1H)-yl)-3-oxoprop-1-en-1-yl)-2-methoxyphenyl ethyl(methyl)carbamate by PET imaging analysis; format: ADME, organism-based; details: in vivo
[19] = Drug uptake in iv dosed mouse amygdala measured after 60 mins by PET imaging analysis; format: ADME, organism-based; details: in vivo, 1 h
[20] = Drug uptake in iv dosed mouse amygdala measured after 60 mins in presence of (E)-4-(3-(3,4-dihydroisoquinolin-2(1H)-yl)-3-oxoprop-1-en-1-yl)-2-methoxyphenyl ethyl(methyl)carbamate by PET imaging analysis; format: ADME, organism-based; details: in vivo
[21] = Drug uptake in iv dosed mouse brain measured at 2 mins by PET imaging analysis; format: ADME, organism-based; details: in vivo
[22] = Drug uptake in iv dosed mouse hypothalamus measured after 60 mins by PET imaging analysis; format: ADME, organism-based; details: in vivo, 1 h
[23] = Drug uptake in iv dosed mouse hypothalamus measured after 60 mins in presence of (E)-4-(3-(3,4-dihydroisoquinolin-2(1H)-yl)-3-oxoprop-1-en-1-yl)-2-methoxyphenyl ethyl(methyl)carbamate by PET imaging analysis; format: ADME, organism-based; details: in vivo
[24] = Drug uptake in iv dosed mouse brainstem measured after 60 mins in presence of (E)-4-(3-(3,4-dihydroisoquinolin-2(1H)-yl)-3-oxoprop-1-en-1-yl)-2-methoxyphenyl ethyl(methyl)carbamate by PET imaging analysis; format: ADME, organism-based; details: in vivo
[25] = Drug uptake in iv dosed mouse cortex measured after 60 mins by PET imaging analysis; format: ADME, organism-based; details: in vivo, 1 h
[26] = Drug uptake in iv dosed mouse hippocampus measured after 60 mins by PET imaging analysis; format: ADME, organism-based; details: in vivo, 1 h
[27] = Drug uptake in iv dosed mouse spleen measured after 60 mins by PET imaging analysis; format: ADME, organism-based; details: in vivo, 1 h
[28] = Drug uptake in iv dosed mouse cerebellum measured after 60 mins in presence of (E)-4-(3-(3,4-dihydroisoquinolin-2(1H)-yl)-3-oxoprop-1-en-1-yl)-2-methoxyphenyl ethyl(methyl)carbamate by PET imaging analysis; format: ADME, organism-based; details: in vivo
[29] = Drug uptake in iv dosed mouse brainstem measured after 60 mins in presence of rivastigmine by PET imaging analysis; format: ADME, organism-based; details: in vivo, 1 h
[30] = Drug uptake in iv dosed mouse hippocampus measured after 60 mins in presence of (E)-4-(3-(3,4-dihydroisoquinolin-2(1H)-yl)-3-oxoprop-1-en-1-yl)-2-methoxyphenyl ethyl(methyl)carbamate by PET imaging analysis; format: ADME, organism-based; details: in vivo
[31] = Drug uptake in iv dosed mouse hypothalamus measured after 60 mins in presence of rivastigmine by PET imaging analysis; format: ADME, organism-based; details: in vivo, 1 h
[32] = Drug uptake in iv dosed mouse striatum measured after 60 mins by PET imaging analysis; format: ADME, organism-based; details: in vivo, 1 h
[33] = Drug uptake in iv dosed mouse amygdala measured after 60 mins in presence of rivastigmine by PET imaging analysis; format: ADME, organism-based; details: in vivo, 1 h
[34] = Drug uptake in iv dosed mouse liver measured after 30 mins by PET imaging analysis; format: ADME, organism-based; details: in vivo, 0.5 h
[35] = Drug uptake in iv dosed mouse heart measured after 5 mins by PET imaging analysis; format: ADME, organism-based; details: in vivo
[36] = Drug uptake in iv dosed mouse striatum measured after 60 mins in presence of (E)-4-(3-(3,4-dihydroisoquinolin-2(1H)-yl)-3-oxoprop-1-en-1-yl)-2-methoxyphenyl ethyl(methyl)carbamate by PET imaging analysis; format: ADME, organism-based; details: in vivo
Cholinesterase [37] = molecular target: Cholinesterase (Equus caballus, UniProt P81908); experiment: Inhibition of equine serum BuChE using BTC as substrate after 15 mins by Ellman's method
Chain of Cholinesterase (Equus caballus, UniProt P81908) (P81908 whole entry): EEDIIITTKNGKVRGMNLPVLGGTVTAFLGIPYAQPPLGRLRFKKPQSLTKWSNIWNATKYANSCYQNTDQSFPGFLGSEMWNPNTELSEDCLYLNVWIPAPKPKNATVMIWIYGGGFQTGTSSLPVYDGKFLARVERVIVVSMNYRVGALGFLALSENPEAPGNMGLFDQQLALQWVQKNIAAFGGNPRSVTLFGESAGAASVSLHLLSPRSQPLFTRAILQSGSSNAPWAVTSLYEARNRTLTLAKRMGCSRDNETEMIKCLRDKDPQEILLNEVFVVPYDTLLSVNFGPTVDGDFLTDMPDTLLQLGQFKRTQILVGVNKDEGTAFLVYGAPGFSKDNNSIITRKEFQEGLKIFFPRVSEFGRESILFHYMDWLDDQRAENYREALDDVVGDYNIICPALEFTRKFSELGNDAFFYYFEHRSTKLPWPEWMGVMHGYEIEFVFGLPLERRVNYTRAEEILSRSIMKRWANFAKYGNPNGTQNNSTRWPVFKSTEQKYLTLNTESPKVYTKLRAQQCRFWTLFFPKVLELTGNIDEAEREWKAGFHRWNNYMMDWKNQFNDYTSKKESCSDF

[38] = molecular target: T1, Amine oxidase [flavin-containing] B (Homo sapiens, UniProt P27338); experiment: Inhibition of recombinant human MAO-B
T1 sequence (P27338 whole entry): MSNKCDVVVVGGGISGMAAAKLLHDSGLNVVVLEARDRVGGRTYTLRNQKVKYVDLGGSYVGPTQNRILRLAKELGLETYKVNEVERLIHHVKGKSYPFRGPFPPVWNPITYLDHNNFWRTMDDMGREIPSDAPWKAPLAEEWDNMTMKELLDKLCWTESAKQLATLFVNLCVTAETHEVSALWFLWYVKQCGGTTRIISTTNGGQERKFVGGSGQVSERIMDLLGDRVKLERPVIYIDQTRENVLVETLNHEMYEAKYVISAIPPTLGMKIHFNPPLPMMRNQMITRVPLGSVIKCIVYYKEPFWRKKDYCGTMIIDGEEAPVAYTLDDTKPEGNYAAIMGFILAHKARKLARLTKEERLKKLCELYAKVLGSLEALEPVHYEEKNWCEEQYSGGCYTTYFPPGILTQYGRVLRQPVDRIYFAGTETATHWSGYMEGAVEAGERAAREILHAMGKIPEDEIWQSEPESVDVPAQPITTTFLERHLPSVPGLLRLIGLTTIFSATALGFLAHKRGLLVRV

Homo sapiens [39] = species: Homo sapiens; experiment: Selectivity index, ratio of IC50 for recombinant human MAO-A to IC50 for recombinant human MAO-B
[40] = molecular target: Cholinesterase (Equus caballus) (UniProt P81908); experiment: Inhibition of equine serum BuChE at 25 uM using BTC as substrate after 15 mins by Ellman's method relative to control
Chain of Cholinesterase (Equus caballus) (P81908 whole entry): as the sequence (P81908 whole entry) above

[41] = molecular target: T2, Amine oxidase [flavin-containing] A (Homo sapiens, UniProt P21397); experiment: Inhibition of recombinant human MAO-A
T2 sequence (P21397 whole entry): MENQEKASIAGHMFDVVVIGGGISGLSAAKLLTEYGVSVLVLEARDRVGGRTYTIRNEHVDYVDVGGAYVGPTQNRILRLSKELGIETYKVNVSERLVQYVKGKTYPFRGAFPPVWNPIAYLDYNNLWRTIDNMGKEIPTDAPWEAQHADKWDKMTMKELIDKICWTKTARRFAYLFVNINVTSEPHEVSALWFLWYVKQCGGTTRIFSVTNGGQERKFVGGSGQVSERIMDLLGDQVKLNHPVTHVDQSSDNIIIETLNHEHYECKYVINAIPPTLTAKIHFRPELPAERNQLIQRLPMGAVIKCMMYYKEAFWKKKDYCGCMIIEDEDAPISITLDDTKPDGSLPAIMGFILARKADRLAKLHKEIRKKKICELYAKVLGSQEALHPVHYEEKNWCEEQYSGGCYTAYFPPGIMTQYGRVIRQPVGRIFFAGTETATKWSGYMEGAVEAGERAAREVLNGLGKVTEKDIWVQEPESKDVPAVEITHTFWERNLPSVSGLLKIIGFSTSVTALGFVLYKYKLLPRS

Homo sapiens [42] = species: Homo sapiens; experiment: Selectivity index, ratio of IC50 for human erythrocytes Ache to IC50 for human serum BuChe
Cholinesterase [43] = molecular target: T3, Cholinesterase (Homo sapiens, UniProt P06276); experiment: Inhibition of human serum BuChE using acetylcholine iodide as substrate incubated for 15 mins by Ellman's method
T3 sequence (P06276 whole entry): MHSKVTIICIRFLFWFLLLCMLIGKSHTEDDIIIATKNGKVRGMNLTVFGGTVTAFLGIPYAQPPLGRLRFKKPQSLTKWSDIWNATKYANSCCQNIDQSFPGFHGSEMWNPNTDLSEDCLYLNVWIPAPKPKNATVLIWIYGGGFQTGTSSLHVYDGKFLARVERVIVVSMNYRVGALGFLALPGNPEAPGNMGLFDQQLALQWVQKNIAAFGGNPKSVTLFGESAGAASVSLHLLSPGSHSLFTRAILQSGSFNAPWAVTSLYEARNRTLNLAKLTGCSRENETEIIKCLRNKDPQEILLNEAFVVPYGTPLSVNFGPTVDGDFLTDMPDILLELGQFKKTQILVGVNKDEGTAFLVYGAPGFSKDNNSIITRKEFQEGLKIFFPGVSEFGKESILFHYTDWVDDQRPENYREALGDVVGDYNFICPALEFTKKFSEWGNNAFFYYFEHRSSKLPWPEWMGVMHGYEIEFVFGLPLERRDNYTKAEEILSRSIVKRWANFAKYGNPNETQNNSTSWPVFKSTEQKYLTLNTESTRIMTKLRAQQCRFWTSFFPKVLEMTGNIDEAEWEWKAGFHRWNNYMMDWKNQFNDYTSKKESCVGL

Acetylcholinesterase [44] = molecular target: Acetylcholinesterase (Homo sapiens, UniProt P22303); experiment: Inhibition of human erythrocytes AChE using acetylcholine iodide as substrate incubated for 15 mins by Ellman's method
Chain of Acetylcholinesterase (Homo sapiens, UniProt P22303) (P22303 whole entry): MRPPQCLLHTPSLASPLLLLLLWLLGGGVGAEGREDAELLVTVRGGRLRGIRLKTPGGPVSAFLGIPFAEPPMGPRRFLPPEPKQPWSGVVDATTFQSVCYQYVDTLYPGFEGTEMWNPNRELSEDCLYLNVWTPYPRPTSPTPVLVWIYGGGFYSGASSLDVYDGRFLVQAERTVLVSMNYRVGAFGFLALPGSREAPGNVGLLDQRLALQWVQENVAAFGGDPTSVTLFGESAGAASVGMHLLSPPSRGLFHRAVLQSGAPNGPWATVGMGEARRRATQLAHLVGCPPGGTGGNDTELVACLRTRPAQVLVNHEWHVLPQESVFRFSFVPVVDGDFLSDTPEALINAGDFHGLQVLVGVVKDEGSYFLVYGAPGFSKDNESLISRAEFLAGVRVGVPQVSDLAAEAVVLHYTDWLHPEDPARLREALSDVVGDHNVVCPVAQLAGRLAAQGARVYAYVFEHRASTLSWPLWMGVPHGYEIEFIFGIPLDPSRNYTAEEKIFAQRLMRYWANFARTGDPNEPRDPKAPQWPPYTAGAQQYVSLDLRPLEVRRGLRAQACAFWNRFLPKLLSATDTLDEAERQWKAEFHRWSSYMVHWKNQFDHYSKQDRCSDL

Acetylcholinesterase [45] = molecular target: Acetylcholinesterase (Electrophorus electricus, UniProt O42275); experiment: Inhibition of Electrophorus electricus AChE using acetylcholine iodide as substrate incubated for 15 mins by Ellman's method
Chain of Acetylcholinesterase (Electrophorus electricus, UniProt O42275) (O42275 whole entry): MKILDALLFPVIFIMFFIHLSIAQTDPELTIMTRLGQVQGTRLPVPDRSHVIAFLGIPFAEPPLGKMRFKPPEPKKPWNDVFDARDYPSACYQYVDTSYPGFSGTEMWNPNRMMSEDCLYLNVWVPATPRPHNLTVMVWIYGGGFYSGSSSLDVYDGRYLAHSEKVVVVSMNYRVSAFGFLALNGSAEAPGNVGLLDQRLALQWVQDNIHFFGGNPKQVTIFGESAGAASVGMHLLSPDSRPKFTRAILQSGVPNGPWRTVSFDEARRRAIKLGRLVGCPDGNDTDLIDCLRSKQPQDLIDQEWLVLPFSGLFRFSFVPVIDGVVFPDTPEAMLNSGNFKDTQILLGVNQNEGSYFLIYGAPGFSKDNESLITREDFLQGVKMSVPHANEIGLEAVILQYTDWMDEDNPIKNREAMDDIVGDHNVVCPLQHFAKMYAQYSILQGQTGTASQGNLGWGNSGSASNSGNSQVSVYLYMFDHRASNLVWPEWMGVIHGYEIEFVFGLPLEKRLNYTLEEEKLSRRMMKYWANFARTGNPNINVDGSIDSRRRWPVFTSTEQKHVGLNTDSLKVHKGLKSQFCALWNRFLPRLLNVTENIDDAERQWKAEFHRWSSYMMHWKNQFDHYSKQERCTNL

Danio rerio [46] = species: Danio rerio; experiment: Antialzheimer activity in AlCl3-induced Zebrafish model of Alzheimer's disease assessed as increase in motility speed at 8 uM relative to control; format: functional
Danio rerio [47] = species: Danio rerio; experiment: Antialzheimer activity in AlCl3-induced Zebrafish model of Alzheimer's disease assessed as increase in motility distance at 8 uM relative to control; format: functional
Danio rerio [48] = species: Danio rerio; experiment: Antialzheimer activity in AlCl3-induced Zebrafish model of Alzheimer's disease assessed as change in motility speed at 8 uM (reference value: 1.08 mm/s); format: functional
Danio rerio [49] = species: Danio rerio; experiment: Antialzheimer activity in AlCl3-induced Zebrafish model of Alzheimer's disease assessed as motility distance at 8 uM (reference value: 5346 mm); format: functional
Cholinesterase [50] = molecular target: T3, Cholinesterase; experiment: Inhibition of human serum BuChE assessed as residual activity at 0.1 times IC50 using acetylcholine iodide as substrate measured after dilution by Ellman's method relative to control

Compound: CCN(C)C(=O)Oc1ccc(/C=C/C(=O)N2CCc3ccccc3C2)cc1O[11CH3]
- Drug uptake [1]: Not Active
- Drug uptake [2]: Active
- Drug uptake [3]: Active
- Drug uptake [4]: Active
- Drug uptake [5]: Active
- Drug uptake [6]: Not Active
- Drug uptake [7]: Not Active
- Drug uptake [8]: Not Active
- Drug uptake [9]: Not Active
- Drug uptake [10]: Not Active
- Drug uptake [11]: Active
- Drug uptake [12]: Not Active
- Drug uptake [13]: Not Active
- Drug uptake [14]: 4.68 %ID/cc
- Drug uptake [15]: Not Active
- Drug uptake [16]: Not Active
- Drug uptake [17]: 6.21 %ID/cc
- Drug uptake [18]: Not Active
- Drug uptake [19]: Active
- Drug uptake [20]: Not Active
- Drug uptake [21]: 8.76 %ID/cc
- Drug uptake [22]: Active
- Drug uptake [23]: Not Active
- Drug uptake [24]: Not Active
- Drug uptake [25]: Active
- Drug uptake [26]: -9 %ID/cc
- Drug uptake [27]: 11.49 %ID/cc
- Drug uptake [28]: Not Active
- Drug uptake [29]: Not Active
- Drug uptake [30]: Not Active
- Drug uptake [31]: Not Active
- Drug uptake [32]: -9 %ID/cc
- Drug uptake [33]: Not Active
- Drug uptake [34]: 14.46 %ID/cc
- Drug uptake [35]: 11.8 %ID/cc
- Drug uptake [36]: Not Active

Compound: COc1cc(/C=C/C(=O)N2CCCCC2)ccc1OC(=O)N(c1ccccc1)c1ccccc1
- IC50 (Cholinesterase [37]): 98.5 µM
- IC50 [38]: 21.8 µM
- Ratio IC50 (Homo sapiens [39]): 2.1
- inhibition [40]: 20%
- IC50 [41]: 46.2 µM
- Ratio IC50 (Homo sapiens [42]): 1.2
- IC50 (Cholinesterase [43]): 22.9 µM
- IC50 (Acetylcholinesterase [44]): 27.2 µM
- IC50 (Acetylcholinesterase [45]): 21.8 µM

Compound: COc1cc2c(cc1OC)C(=O)C(CC1CCN(Cc3ccccc3)CC1)C2 (stereo not given) [DONEPEZIL]
- Efficacy (Danio rerio [46]): 64.5%
- Efficacy (Danio rerio [47]): 57.9%
- Activity (Danio rerio [48]): <=1.88 millimeter/sec
- Activity (Danio rerio [49]): 6477 mm
- Activity (Cholinesterase [50]): 63.2%
